Tests used:
[1] = tested on: A. brassicicola MTCC 2102; test: MIC against phytopathogenic fungi, 96-well microtiter plate assay; type: cell-based, Alternaria brassicicola; details: 1 × 10^5 spores/ml in PDB, 25°C, OD600 after 48 h, triplicate
Description: The antimicrobial activity was tested by well diffusion assay as mentioned earlier ([Singh et al., 2014]). Strain A52 was grown for 24 h in 500 ml of nutrient broth (NB, Hi-media, India) using 1000 ml flask and subsequently cells were removed by centrifugation (10,000 rpm for 15 min at 4°C). Supernatant was filtered through 0.22 μm filter (Millipore, United States) to obtain cell-free fermented broth (CFB) that was used for antimicrobial assay (50 μl) against various indicator strains and the activity was measured as diameter of inhibition zone. […]
The minimum inhibitory concentration (MIC) of HPLC purified peptides was evaluated by using microtiter plate dilution assay. […] OD was measured at 600 nm after 24 and 48 h for bacteria and yeast, respectively, using ELISA microplate reader (Thermo, United States). MIC against phytopathogenic fungi was determined using 96-well microtiter plate assay ([Kaur et al., 2016]). […] The microplates were incubated at 25°C and readings were recorded at 600 nm after 48 h. […]

[2] = Temperature sensitivity, residual antimicrobial activity; type: physicochemical; details: residual antimicrobial activity by well diffusion assay at RT; for Residual activity (%), temperature 100 ºC: 100 °C
Description: (§1) Sensitivity of purified peptides toward temperature, pH, and non-specific proteases was confirmed by performing bioassays. The pH stability was determined by adjusting the pH 2.0–12.0 of peptide aliquots (using 10 mM HCl or NaOH) and incubating for 4 h at room temperature. Samples were neutralized to pH 7.0 before processing for antimicrobial assay. To determine temperature susceptibility, peptides were incubated at different temperatures ranging from 37 to 100°C for 1 h and 121°C for 15 min and residual antimicrobial activity was determined at RT by well diffusion assay. Proteolytic enzymes trypsin and proteinase K (Sigma, United States) were used at three different concentrations (0.1, 1.0, and 5.0 mg/ml) to observe their effect on the peptide. The enzyme solutions were prepared in 50 mM phosphate buffer (pH 7.0). All reactions were performed at 37°C for 6 h followed by deactivation of enzyme by heating the solution in boiling water for 5 min before performing the activity assay.

[3] = tested on: C. krusei 440009 (clinical isolate); test: MIC, microtiter plate dilution assay; type: cell-based; details: 5 × 10^5 CFU/ml, 37°C, OD600 after 48 h, triplicate
Description: (§2) The antimicrobial activity was tested by well diffusion assay as mentioned earlier ([Singh et al., 2014]). Strain A52 was grown for 24 h in 500 ml of nutrient broth (NB, Hi-media, India) using 1000 ml flask and subsequently cells were removed by centrifugation (10,000 rpm for 15 min at 4°C). Supernatant was filtered through 0.22 μm filter (Millipore, United States) to obtain cell-free fermented broth (CFB) that was used for antimicrobial assay (50 μl) against various indicator strains and the activity was measured as diameter of inhibition zone. Test strains used were Staphylococcus aureus (MTCC 1430), Bacillus subtilis (MTCC 121), B. firmus (MTCC 488), B. licheniformis (MTCC 429), B. thuringiensis (MTCC 1953), Escherichia coli (MTCC 1610), Micrococcus luteus (MTCC 106), Steptococcus pyrogens (MTCC 1928), S. anginosus (MTCC 1929), S. oralis (MTCC 2696), S. mutans (MTCC 497), Candida albicans (MTCC 1637), C. albicans (MTCC 183), C. albicans (MTCC 227), C. tropicalis (MTCC 184), C. glabrata (MTCC 3019), C. haemulonii (MTCC 2766), and C. inconsplicue (MTCC 1074). The phytopathogenic fungi employed in this study were Alternaria brassicicola (MTCC 2102), Colletotrichum acutatum (MTCC 1037), and Fusarium moniliforme (MTCC 158). Clinical isolates of Candida were provided by National Culture Collection of Pathogenic Fungi (NCCPF), PGIMER, Chandigarh, India.
(§3) The minimum inhibitory concentration (MIC) of HPLC purified peptides was evaluated by using microtiter plate dilution assay. The peptide concentration was estimated using BCA protein assay (Thermo Fisher Scientific, United States) method as described by manufacturer. Actively growing test strains (5 × 10^5 CFU/ml) were inoculated in a 96-well plate with different concentrations of the peptides and plates were incubated for 24–48 h at 37°C (final volume in each well is 200 μl). OD was measured at 600 nm after 24 and 48 h for bacteria and yeast, respectively, using ELISA microplate reader (Thermo, United States). MIC against phytopathogenic fungi was determined using 96-well microtiter plate assay ([Kaur et al., 2016]). In 96-well microplates, 100 μl of fungal spore suspension (1 × 10^5 spores/ml) prepared in potato dextrose broth (PDB, Hi-media, India) was mixed with100 μl of fresh PDB containing different concentrations of lipopeptide. Control well contained 100 μl of fungal spore suspension and 100 μl of only medium. The microplates were incubated at 25°C and readings were recorded at 600 nm after 48 h. The lowest concentration showing no growth was considered as MIC. Each test was done in triplicate and optical density (OD600) of peptide treated wells were compared with uninoculated wells (blank medium control).

C. tropicalis MTCC 184 = test: MIC, microtiter plate dilution assay; type: cell-based; details: 5 × 10^5 CFU/ml, 37°C, OD600 after 48 h, triplicate
Description: as §2, §3

S. oralis MTCC 2696 = test: MIC, microtiter plate dilution assay; type: cell-based; details: 5 × 10^5 CFU/ml, 37°C, OD600 after 24 h, triplicate
Description: as §2, §3

[4] = tested on: C. parasilosis 450030 (clinical isolate); test: MIC, microtiter plate dilution assay; type: cell-based; details: 5 × 10^5 CFU/ml, 37°C, OD600 after 48 h, triplicate
Description: as §2, §3

[5] = tested on: C. rugos 470141 (clinical isolate); test: MIC, microtiter plate dilution assay; type: cell-based; details: 5 × 10^5 CFU/ml, 37°C, OD600 after 48 h, triplicate
Description: as §2, §3

[6] = tested on: C. inconsplicue MTCC 1074; test: MIC, microtiter plate dilution assay; type: cell-based; details: 5 × 10^5 CFU/ml, 37°C, OD600 after 48 h, triplicate
Description: as §2, §3

[7] = tested on: C. aurius 470126 (clinical isolate); test: MIC, microtiter plate dilution assay; type: cell-based; details: 5 × 10^5 CFU/ml, 37°C, OD600 after 48 h, triplicate
Description: as §2, §3

[8] = tested on: C. glabrata SKSS ID (clinical isolate); test: MIC, microtiter plate dilution assay; type: cell-based; details: 5 × 10^5 CFU/ml, 37°C, OD600 after 48 h, triplicate
Description: as §2, §3

[9] = tested on: C. haemulonii 470125 (clinical isolate); test: MIC, microtiter plate dilution assay; type: cell-based; details: 5 × 10^5 CFU/ml, 37°C, OD600 after 48 h, triplicate
Description: as §2, §3

C. haemulonii MTCC 2766 = test: MIC, microtiter plate dilution assay; type: cell-based; details: 5 × 10^5 CFU/ml, 37°C, OD600 after 48 h, triplicate
Description: as §2, §3

S. pyogenes MTCC 1928 = test: MIC, microtiter plate dilution assay; type: cell-based; details: 5 × 10^5 CFU/ml, 37°C, OD600 after 24 h, triplicate
Description: as §2, §3

[10] = tested on: C. kefyr 410004 (clinical isolate); test: MIC, microtiter plate dilution assay; type: cell-based; details: 5 × 10^5 CFU/ml, 37°C, OD600 after 48 h, triplicate
Description: as §2, §3

S. mutans MTCC 497 = test: MIC, microtiter plate dilution assay; type: cell-based; details: 5 × 10^5 CFU/ml, 37°C, OD600 after 24 h, triplicate
Description: as §2, §3

C. glabrata MTCC 3019 = test: MIC, microtiter plate dilution assay; type: cell-based; details: 5 × 10^5 CFU/ml, 37°C, OD600 after 48 h, triplicate
Description: as §2, §3

[11] = tested on: C. tropicalis 420024 (clinical isolate); test: MIC, microtiter plate dilution assay; type: cell-based; details: 5 × 10^5 CFU/ml, 37°C, OD600 after 48 h, triplicate
Description: as §2, §3

S. anginosus MTCC1929 = test: MIC, microtiter plate dilution assay; type: cell-based; details: 5 × 10^5 CFU/ml, 37°C, OD600 after 24 h, triplicate
Description: as §2, §3

proteinase K = target: T1, proteinase K (Parengyodontium album, UniProt P06873); test: Sensitivity to proteolytic enzyme, residual antimicrobial activity; type: in vitro ADME; details: 6h/ 37°C, enzyme 0.1, 1.0 and 5.0 mg/ml in 50 mM phosphate buffer pH 7.0, enzyme deactivated in boiling water 5 min
T1 construct: purchased Sigma, United States
T1 sequence (P06873 106-384): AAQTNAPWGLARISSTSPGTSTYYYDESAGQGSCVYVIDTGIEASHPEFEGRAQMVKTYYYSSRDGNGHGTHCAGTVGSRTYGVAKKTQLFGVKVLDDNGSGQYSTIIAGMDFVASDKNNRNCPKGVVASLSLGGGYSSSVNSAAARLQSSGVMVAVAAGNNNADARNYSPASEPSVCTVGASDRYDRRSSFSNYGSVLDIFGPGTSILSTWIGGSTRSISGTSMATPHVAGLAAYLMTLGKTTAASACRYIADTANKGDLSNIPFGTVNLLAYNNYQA
Description: as §1

Glu^1-Leu/Ile^2-Leu^3-Val^4-Asp^5-Leu^6-Leu/Ile^7 and a β-OH hexadecane fatty acid chain (lariat or depsi) [Lipopeptide A52, cyclic surfactin-like lipopeptide, 7 amino acids and C16 β-hydroxy fatty acid, 1061.9 Da, from B. subtilis strain A52]
MIC value, A. brassicicola MTCC 2102 [1]: 25 µg/mL
Residual activity (%), temperature 37 ºC ([2]; 37 °C, 1h): 100%
Residual activity (%), temperature 50 ºC ([2]; 50 °C, 1h): 100%
Residual activity (%), temperature 60 ºC ([2]; 60 °C, 1h): 100%
Residual activity (%), temperature 70 ºC ([2]; 70 °C, 1h): 100%
Residual activity (%), temperature 80 ºC ([2]; 80 °C, 1h): 100%
Residual activity (%), temperature 100 ºC ([2]; 1h, listed as Lipopeptide): 100%
Residual activity (%), temperature 100 ºC ([2]; 1h, listed as surfactin-like lipopeptide): not affected
Residual activity (%), temperature 121 ºC (autoclaving) ([2]; 121 °C, 15 min (15 lbs)): 89.0%
MIC value, C. krusei 440009 [3]: 12 µg/mL
MIC value, C. tropicalis MTCC 184 (C. tropicalis MTCC 184): 12 µg/mL
MIC value, S. oralis MTCC 2696 (S. oralis MTCC 2696): 4 µg/mL
MIC value, C. parasilosis 450030 [4]: 28 µg/mL
MIC value, C. rugos 470141 [5]: 16 µg/mL
MIC value, C. inconsplicue MTCC 1074 [6]: 16 µg/mL
MIC value, C. aurius 470126 [7]: 26 µg/mL
MIC value, C. glabrata SKSS ID [8]: 16 µg/mL
MIC value, C. haemulonii 470125 [9]: 28 µg/mL
MIC value, C. haemulonii MTCC 2766 (C. haemulonii MTCC 2766): 20 µg/mL
MIC value, S. pyogenes MTCC 1928 (S. pyogenes MTCC 1928): 2 µg/mL
MIC value, C. kefyr 410004 [10]: 26 µg/mL
MIC value, S. mutans MTCC 497 (S. mutans MTCC 497): 6 µg/mL
MIC value, C. glabrata MTCC 3019 (C. glabrata MTCC 3019): 16 µg/mL
MIC value, C. tropicalis 420024 [11]: 28 µg/mL
MIC value, S. anginosus MTCC1929 (S. anginosus MTCC1929): 4 µg/mL
Residual activity (%), Proteinase k (proteinase K): 100%
